Measured values from ChEMBL document CHEMBL1201862, “PubChem BioAssay data set” (2004).
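All cell lines were grown in 96-well plates and treated with compound for 48 hours. GI50: concentration for 50% inhibition of growth.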 Calls of active or inactive are those of the source. Cut-off read from the data, not from the text of the source: active = GI50 up to about 1.1 µM and inactive = higher.

What was measured:
Assay in all cases: NCI tumour cell line growth inhibition, 48 h
SF-295 = system: SF-295
LOX IMVI = system: LOX IMVI
MDA-MB-231 = system: MDA-MB-231
KM12 = system: KM12
T47D = system: T47D
NCI-H226 = system: NCI-H226
MCF7 = system: MCF7
TK-10 = system: TK-10
HL-60 = system: HL-60
SF-268 = system: SF-268
M14 = system: M14
PC-3 = system: PC-3
OVCAR-4 = system: OVCAR-4
BT-549 = system: BT-549
SK-OV-3 = system: SK-OV-3
CAKI-1 = system: CAKI-1
COLO 205 = system: COLO 205
RXF 393 = system: RXF 393
SF-539 = system: SF-539
RPMI-8226 = system: RPMI-8226

Q: For `c1cncc(CSc2ncnc3[nH]cnc23)c1`, which GI50 (SF-295) is on record?
A: Its GI50 is > 100 µM (inactive).

Q: What about the GI50 (LOX IMVI) of the same compound?
A: The GI50 was > 100 µM (inactive).

Q: And the GI50 (MDA-MB-231)?
A: Its GI50 is > 100 µM (inactive).

Q: And the GI50 (KM12)?
A: Its GI50 is > 100 µM (inactive).

Q: And the GI50 (T47D)?
A: Its GI50 is > 100 µM (inactive).

Q: And the GI50 (NCI-H226)?
A: Its GI50 is > 100 µM (inactive).

Q: What about the GI50 (MCF7) of the same compound?
A: Its GI50 is > 100 µM (inactive).

Q: And the GI50 (TK-10)?
A: The GI50 was > 100 µM (inactive).

Q: And the GI50 (HL-60)?
A: The GI50 was > 100 µM (inactive).

Q: And the GI50 (SF-268)?
A: The GI50 was > 100 µM (inactive).

Q: And the GI50 (M14)?
A: Its GI50 is > 100 µM (inactive).

Q: What about the GI50 (PC-3) of the same compound?
A: The GI50 was > 100 µM (inactive).

Q: What about the GI50 (OVCAR-4) of the same compound?
A: The GI50 was > 100 µM (inactive).

Q: What about the GI50 (BT-549) of the same compound?
A: Its GI50 is > 100 µM (inactive).

Q: And the GI50 (SK-OV-3)?
A: Its GI50 is > 100 µM (inactive).

Q: And the GI50 (CAKI-1)?
A: Its GI50 is > 100 µM (inactive).

Q: What about the GI50 (COLO 205) of the same compound?
A: Its GI50 is > 100 µM (inactive).

Q: What about the GI50 (RXF 393) of the same compound?
A: Its GI50 is > 100 µM (inactive).

Q: Which GI50 (SF-539) does the source give for `Cc1c(C)c(C)c(-n2[nH]c(=O)n(C)c2=O)c(C)c1C` here?
A: Its GI50 is > 100 µM (inactive).

Q: What about the GI50 (SF-295) of the same compound?
A: Its GI50 is > 100 µM (inactive).

Q: What about the GI50 (LOX IMVI) of the same compound?
A: The GI50 was > 100 µM (inactive).

Q: What about the GI50 (MDA-MB-231) of the same compound?
A: Its GI50 is > 100 µM (inactive).

Q: And the GI50 (KM12)?
A: Its GI50 is > 100 µM (inactive).

Q: And the GI50 (T47D)?
A: The GI50 was > 100 µM (inactive).

Q: And the GI50 (NCI-H226)?
A: Its GI50 is > 100 µM (inactive).

Q: What about the GI50 (MCF7) of the same compound?
A: Its GI50 is > 100 µM (inactive).

Q: And the GI50 (TK-10)?
A: Its GI50 is > 100 µM (inactive).

Q: And the GI50 (HL-60)?
A: Its GI50 is > 100 µM (inactive).

Q: And the GI50 (SF-268)?
A: Its GI50 is > 100 µM (inactive).

Q: And the GI50 (M14)?
A: Its GI50 is > 100 µM (inactive).

Q: And the GI50 (PC-3)?
A: Its GI50 is > 100 µM (inactive).

Q: What about the GI50 (BT-549) of the same compound?
A: Its GI50 is > 100 µM (inactive).

Q: And the GI50 (RPMI-8226)?
A: The GI50 was > 100 µM (inactive).

Q: And the GI50 (SK-OV-3)?
A: The GI50 was > 100 µM (inactive).

Q: What about the GI50 (CAKI-1) of the same compound?
A: The GI50 was > 100 µM (inactive).

Q: And the GI50 (COLO 205)?
A: Its GI50 is > 100 µM (inactive).

Q: For `O=c1c2cc([N+](=O)[O-])ccc2oc2nc3n(c(=O)c12)CCCS3`, which GI50 (SF-539) is on record?
A: The GI50 was > 100 µM (inactive).

Q: What about the GI50 (SF-295) of the same compound?
A: Its GI50 is > 100 µM (inactive).

Q: What about the GI50 (MDA-MB-231) of the same compound?
A: The GI50 was > 100 µM (inactive).

Q: And the GI50 (KM12)?
A: Its GI50 is > 100 µM (inactive).

Q: And the GI50 (T47D)?
A: The GI50 was > 100 µM (inactive).

Q: And the GI50 (NCI-H226)?
A: The GI50 was > 100 µM (inactive).

Q: And the GI50 (MCF7)?
A: The GI50 was > 100 µM (inactive).

Q: What about the GI50 (TK-10) of the same compound?
A: Its GI50 is > 100 µM (inactive).

Q: And the GI50 (SF-268)?
A: The GI50 was > 100 µM (inactive).

Q: And the GI50 (M14)?
A: The GI50 was > 100 µM (inactive).

Q: And the GI50 (PC-3)?
A: The GI50 was > 100 µM (inactive).

Q: And the GI50 (OVCAR-4)?
A: Its GI50 is > 100 µM (inactive).

Q: And the GI50 (BT-549)?
A: The GI50 was > 100 µM (inactive).

Q: What about the GI50 (RPMI-8226) of the same compound?
A: Its GI50 is > 100 µM (inactive).

Q: And the GI50 (SK-OV-3)?
A: Its GI50 is > 100 µM (inactive).

Q: What about the GI50 (CAKI-1) of the same compound?
A: The GI50 was > 100 µM (inactive).

Q: And the GI50 (COLO 205)?
A: Its GI50 is > 100 µM (inactive).

Q: And the GI50 (RXF 393)?
A: Its GI50 is > 100 µM (inactive).

Q: `COc1c2cc(C(C)(C)C)cc1CSCc1cc(C(C)(C)C)cc(c1OC)CCCCC2` was tested. Which GI50 (SF-539) did it give?
A: The GI50 was 19.6 µM (inactive).

Q: What about the GI50 (SF-295) of the same compound?
A: The GI50 was 17 µM (inactive).

Q: And the GI50 (MDA-MB-231)?
A: Its GI50 is 46.8 µM (inactive).

Q: And the GI50 (KM12)?
A: Its GI50 is > 50 µM (inactive).

Q: What about the GI50 (T47D) of the same compound?
A: Its GI50 is 30 µM (inactive).

Q: What about the GI50 (NCI-H226) of the same compound?
A: Its GI50 is 20.5 µM (inactive).

Q: And the GI50 (MCF7)?
A: The GI50 was > 50 µM (inactive).

Q: What about the GI50 (TK-10) of the same compound?
A: The GI50 was 31.9 µM (inactive).

Q: What about the GI50 (HL-60) of the same compound?
A: Its GI50 is > 50 µM (inactive).

Q: What about the GI50 (SF-268) of the same compound?
A: Its GI50 is 46.2 µM (inactive).

Q: And the GI50 (M14)?
A: Its GI50 is 46.7 µM (inactive).

Q: And the GI50 (PC-3)?
A: The GI50 was 22.4 µM (inactive).

Q: What about the GI50 (BT-549) of the same compound?
A: The GI50 was 21.6 µM (inactive).

Q: What about the GI50 (SK-OV-3) of the same compound?
A: Its GI50 is > 50 µM (inactive).

Q: What about the GI50 (COLO 205) of the same compound?
A: Its GI50 is > 50 µM (inactive).

Q: With `Cc1c2cccc-2c2cc(O)c3ccccc3c2n1-c1ccc(N(C)C)cc1` as the compound, how does the GI50 (SF-539) read?
A: The GI50 was 14.3 µM (inactive).

Q: What about the GI50 (SF-295) of the same compound?
A: Its GI50 is 10.1 µM (inactive).

Q: What about the GI50 (LOX IMVI) of the same compound?
A: The GI50 was 13.4 µM (inactive).

Q: What about the GI50 (MDA-MB-231) of the same compound?
A: The GI50 was 3.01 µM (inactive).

Q: And the GI50 (KM12)?
A: Its GI50 is 6.82 µM (inactive).

Q: What about the GI50 (T47D) of the same compound?
A: The GI50 was 0.304 µM (active).

Q: What about the GI50 (NCI-H226) of the same compound?
A: Its GI50 is 9.68 µM (inactive).

Q: What about the GI50 (MCF7) of the same compound?
A: The GI50 was 0.395 µM (active).

Q: What about the GI50 (TK-10) of the same compound?
A: Its GI50 is 13 µM (inactive).

Q: What about the GI50 (HL-60) of the same compound?
A: The GI50 was 19.9 µM (inactive).

Q: What about the GI50 (SF-268) of the same compound?
A: Its GI50 is 15.9 µM (inactive).

Q: What about the GI50 (M14) of the same compound?
A: Its GI50 is 14.5 µM (inactive).

Q: And the GI50 (PC-3)?
A: Its GI50 is 11.7 µM (inactive).

Q: And the GI50 (OVCAR-4)?
A: The GI50 was 3.37 µM (inactive).

Q: And the GI50 (BT-549)?
A: The GI50 was 10.7 µM (inactive).

Q: What about the GI50 (RPMI-8226) of the same compound?
A: The GI50 was 6.22 µM (inactive).

Q: What about the GI50 (SK-OV-3) of the same compound?
A: The GI50 was 15.8 µM (inactive).

Q: What about the GI50 (CAKI-1) of the same compound?
A: Its GI50 is 16 µM (inactive).

Q: What about the GI50 (COLO 205) of the same compound?
A: The GI50 was 16.1 µM (inactive).

Q: Which results are given for `Nc1ccc2c(O)cc(O)nc2n1`?
A: GI50 (SF-539): > 100 µM (inactive); GI50 (SF-295): > 100 µM (inactive); GI50 (MDA-MB-231): > 100 µM (inactive); GI50 (KM12): > 100 µM (inactive); GI50 (T47D): > 100 µM (inactive); GI50 (NCI-H226): > 100 µM (inactive); GI50 (MCF7): > 100 µM (inactive); GI50 (TK-10): > 100 µM (inactive); GI50 (HL-60): > 100 µM (inactive); GI50 (SF-268): > 100 µM (inactive); GI50 (M14): > 100 µM (inactive); GI50 (PC-3): > 100 µM (inactive); GI50 (OVCAR-4): > 100 µM (inactive); GI50 (BT-549): > 100 µM (inactive); GI50 (RPMI-8226): > 100 µM (inactive); GI50 (SK-OV-3): > 100 µM (inactive); GI50 (CAKI-1): > 100 µM (inactive); GI50 (COLO 205): > 100 µM (inactive); GI50 (RXF 393): > 100 µM (inactive)

Q: Which results are given for `COC(=O)/C=C(\S/C(=N\n1cc(C(=O)OC)c(C(=O)OC)c1-c1ccc(C)cc1)c1ccc(C)cc1)C(=O)OC`?
A: GI50 (SF-539): 17.9 µM (inactive); GI50 (SF-295): 32.8 µM (inactive); GI50 (LOX IMVI): 2.84 µM (inactive); GI50 (MDA-MB-231): 5.25 µM (inactive); GI50 (KM12): 19.1 µM (inactive); GI50 (T47D): 1.03 µM (active); GI50 (NCI-H226): 1.7 µM (inactive); GI50 (MCF7): 6.7 µM (inactive); GI50 (TK-10): 3.03 µM (inactive); GI50 (HL-60): 4.62 µM (inactive); GI50 (SF-268): 16.1 µM (inactive); GI50 (M14): 5.94 µM (inactive); GI50 (PC-3): 5.28 µM (inactive); GI50 (OVCAR-4): 1.58 µM (inactive); GI50 (BT-549): 7.23 µM (inactive); GI50 (RPMI-8226): 1.44 µM (inactive); GI50 (SK-OV-3): 32.3 µM (inactive); GI50 (COLO 205): 2.45 µM (inactive); GI50 (RXF 393): 5.47 µM (inactive)
